According to patent US4145554A, “3-Nitropyrazole derivatives” (Eli Lilly and Company, priority 1977, dated 1979):
Values after ≈ are worked out from the molar mass of the structure shown. Like-named read-outs stand apart in the source and are kept apart here.

Key:
Pasteurella multocida = experiment: in vitro tube dilution test (MIC); assay type: cell-based
Text: (§1) Our compound, 1-(2-hydroxyethyl)-3-nitro-4-pyrazolecarboxamide, has been extensively tested in vitro to determine the range of microorganisms against which it is active. The table of data below reports the minimum inhibitory concentration (MIC) at which the compound is effective in controlling a variety of microorganisms in a standard tube dilution test system. The MIC is reported as micrograms of compound per milliliter.
(§2) The other preferred compounds of our invention have also been thoroughly tested in the in vitro tube dilution test.
(§3) Other compounds of our invention have also been tested in the tube dilution test and shown to have in vitro activity against a number of microorganisms. The table below reports tests of a number of exemplary compounds against exemplary microorganisms. The compounds are identified by their numbers in the listing above. The data are reported as the MIC in micrograms per milliliter against the named exemplary microorganisms.

Streptococcus sp. 80 = experiment: in vitro tube dilution test (MIC); assay type: cell-based
Text: as §3

[1] = tested on: Staphylococcus aureus sp. 1130; experiment: in vitro tube dilution test (MIC); assay type: cell-based
Text: as §2, §3

Vibrio coli 3811 = experiment: in vitro tube dilution test (MIC); assay type: cell-based; settings: Campylobacter coli
Text: as §2, §3

Salmonella dublin = experiment: in vitro tube dilution test (MIC); assay type: cell-based; settings: Salmonella enterica
Text: as §2, §3

Mycoplasma gallisepticum = experiment: in vitro tube dilution test (MIC); assay type: cell-based; settings: Mycoplasmoides gallisepticum
Text: as §1, §3

Escherichia coli = experiment: in vitro tube dilution test (MIC); assay type: cell-based
Text: as §1, §3

Salmonella typhimurium = experiment: Salmonellosis in chickens, single injection to day-old chicks; assay type: in vivo; settings: Salmonella enterica, TYPHIMURIUM, 168 h; single injection of 60 mg./kg.; seven days; read-out: Survival (converted)
Description: A number of our 3-nitropyrazoles have been tested against an induced infection of Salmonella typhimurium in day-old chicks. The test was conducted by administering a single injection of 60 mg./kg. of the compounds to each of five chicks. The following day, the chicks were challenged by the subcutaneous injection of a dispersion of S. typhimurium organisms sufficient to kill most or all of the untreated control chicks.
Some of the compounds were tested more than once, in which instances the data are reported as the total survivors from the multiple treatment groups. Untreated, challenged control groups of chicks were tested together with each batch of groups of chicks to which test compounds were administered. Since the mortality of the untreated control chicks varied somewhat from one group of tests to another, results of the untreated control groups are reported below with each test.

[2] = Streptococcus sp. 80, tube dilution, read-out: MIC
[3] = Staphylococcus aureus sp. 1130, tube dilution, read-out: MIC
[4] = Vibrio coli 3811, tube dilution, read-out: MIC
[5] = Salmonella dublin, tube dilution, read-out: MIC
[6] = Mycoplasma gallisepticum, tube dilution, read-out: MIC

C#CCn1cc(C#N)c([N+](=O)[O-])n1 [Compound 4, 1-propargyl-3-nitro-4-pyrazolecarbonitrile]
MIC (Pasteurella multocida; tube dilution, read-out: MIC): 12.5 µg/mL (≈ 71 µM)
MIC (Streptococcus sp. 80; [2]): > 50 µg/mL
MIC [1, 3]: > 50 µg/mL
MIC (Vibrio coli 3811; [4]): 6.25 µg/mL (≈ 35.5 µM)
MIC (Salmonella dublin; [5]): 50 µg/mL (≈ 284 µM)
MIC (Mycoplasma gallisepticum; [6]): 50 µg/mL (≈ 284 µM)
MIC (Escherichia coli; tube dilution, read-out: MIC): 50 µg/mL (≈ 284 µM)

CCOC(Cn1cc(C#N)c([N+](=O)[O-])n1)OCC [Compound 67, 1-(2,2-diethoxyethyl)-3-nitro-4-pyrazolecarbonitrile]
MIC (Pasteurella multocida; tube dilution, read-out: MIC): 25 µg/mL (≈ 98.3 µM)
MIC (Streptococcus sp. 80; [2]): 50 µg/mL (≈ 197 µM)
MIC [1, 3]: 50 µg/mL (≈ 197 µM)
MIC (Vibrio coli 3811; [4]): 50 µg/mL (≈ 197 µM)
MIC (Salmonella dublin; [5]): 50 µg/mL (≈ 197 µM)
MIC (Mycoplasma gallisepticum; [6]): 50 µg/mL (≈ 197 µM)
MIC (Escherichia coli; tube dilution, read-out: MIC): 50 µg/mL (≈ 197 µM)

CCOC(=O)OCCn1cc(C(N)=O)c([N+](=O)[O-])n1 [Compound 78, [2-(4-carbamoyl-3-nitropyrazol-1-yl)ethyl] ethyl carbonate]
responders at 60 mg/kg (Salmonella typhimurium): 40%

N#Cc1cn(CCBr)nc1[N+](=O)[O-] [Compound 91, 1-(2-bromoethyl)-3-nitro-4-pyrazolecarbonitrile]
MIC (Pasteurella multocida; tube dilution, read-out: MIC): 12.5 µg/mL (≈ 51 µM)
MIC (Streptococcus sp. 80; [2]): 50 µg/mL (≈ 204 µM)
MIC [1, 3]: > 50 µg/mL
MIC (Vibrio coli 3811; [4]): 12.5 µg/mL (≈ 51 µM)
MIC (Salmonella dublin; [5]): > 50 µg/mL
MIC (Mycoplasma gallisepticum; [6]): > 50 µg/mL
MIC (Escherichia coli; tube dilution, read-out: MIC): > 50 µg/mL

CCCCCCCCCn1cc(C(N)=O)c([N+](=O)[O-])n1 [Compound 48, 3-nitro-1-nonyl-4-pyrazolecarboxamide]
MIC (Pasteurella multocida; tube dilution, read-out: MIC): 0.39 µg/mL (≈ 1.38 µM)
MIC (Streptococcus sp. 80; [2]): > 50 µg/mL
MIC [1, 3]: 25 µg/mL (≈ 88.5 µM)
MIC (Vibrio coli 3811; [4]): 50 µg/mL (≈ 177 µM)
MIC (Salmonella dublin; [5]): > 50 µg/mL
MIC (Mycoplasma gallisepticum; [6]): 50 µg/mL (≈ 177 µM)
MIC (Escherichia coli; tube dilution, read-out: MIC): > 50 µg/mL

NC(=O)c1cn(CCOC(=O)c2cccc(Cl)c2)nc1[N+](=O)[O-] [Compound 99, 2-(4-carbamoyl-3-nitropyrazol-1-yl)ethyl m-chlorobenzoate]
responders at 60 mg/kg (Salmonella typhimurium): 80%

Cc1ccc(C(=O)OCCn2cc(C(N)=O)c([N+](=O)[O-])n2)cc1 [Compound 76, [2-(4-carbamoyl-3-nitropyrazol-1-yl)ethyl] p-toluate]
responders at 60 mg/kg (Salmonella typhimurium): 100%

O=C(NN=Cc1ccc([N+](=O)[O-])o1)c1cn(CCO)nc1[N+](=O)[O-] [Compound 94, 1-(2-hydroxyethyl)-3-nitropyrazole-4-carboxylic acid, 5-nitrofurfurylidene hydrazide]
MIC (Pasteurella multocida): < 1.56 µg/mL
MIC (Streptococcus sp. 80; Streptococcus, SP.80): 25 µg/mL (≈ 73.9 µM)
MIC ([1]; Staphylococcus aureus, SP.1130): 6.25 µg/mL (≈ 18.5 µM)
MIC (Vibrio coli 3811; 3811): < 1.56 µg/mL
MIC (Salmonella dublin): 25 µg/mL (≈ 73.9 µM)
MIC (Mycoplasma gallisepticum): 6.25 µg/mL (≈ 18.5 µM)
MIC (Escherichia coli): 25 µg/mL (≈ 73.9 µM)

NC(=O)c1cn(CCOC(=O)c2ccc(Cl)c(Cl)c2)nc1[N+](=O)[O-] [Compound 98, 2-(4-carbamoyl-3-nitropyrazol-1-yl)ethyl 3,4-dichlorobenzoate]
responders at 60 mg/kg (Salmonella typhimurium): 100%

N#Cc1cn(-c2ccc([N+](=O)[O-])cc2)nc1[N+](=O)[O-] [Compound 92, 3-nitro-1-(4-nitrophenyl)-4-pyrazolecarbonitrile]
MIC (Pasteurella multocida): 0.78 µg/mL (≈ 3.01 µM)
MIC (Streptococcus sp. 80; Streptococcus, SP.80): 50 µg/mL (≈ 193 µM)
MIC ([1]; Staphylococcus aureus, SP.1130): 6.25 µg/mL (≈ 24.1 µM)
MIC (Vibrio coli 3811; 3811): 6.25 µg/mL (≈ 24.1 µM)
MIC (Salmonella dublin): > 50 µg/mL
MIC (Mycoplasma gallisepticum): 12.5 µg/mL (≈ 48.2 µM)
MIC (Escherichia coli): > 50 µg/mL

CC(O)Cn1cc(C(N)=O)c([N+](=O)[O-])n1 (stereo not shown) [Compound 69, 1-(2-hydroxypropyl)-3-nitro-4-pyrazolecarboxamide]
responders at 60 mg/kg (Salmonella typhimurium): 100%

N#Cc1cn(CCCl)nc1[N+](=O)[O-] [Compound 33, 1-(2-chloroethyl)-3-nitro-4-pyrazolecarbonitrile]
MIC (Streptococcus sp. 80; [2]): 100 µg/mL (≈ 499 µM)
MIC [1, 3]: 100 µg/mL (≈ 499 µM)
MIC (Vibrio coli 3811; [4]): 12.5 µg/mL (≈ 62.3 µM)
MIC (Salmonella dublin; [5]): 100 µg/mL (≈ 499 µM)
MIC (Mycoplasma gallisepticum; [6]): > 50 µg/mL
MIC (Escherichia coli; tube dilution, read-out: MIC): 100 µg/mL (≈ 499 µM)
responders at 60 mg/kg (Salmonella typhimurium): 80%

N#Cc1cn(CC2CO2)nc1[N+](=O)[O-] (stereo not shown) [Compound 31, 1-(2,3-epoxypropyl)-3-nitro-4-pyrazolecarbonitrile]
MIC (Streptococcus sp. 80; [2]): 50 µg/mL (≈ 258 µM)
MIC [1, 3]: 50 µg/mL (≈ 258 µM)
MIC (Vibrio coli 3811; [4]): 12.5 µg/mL (≈ 64.4 µM)
MIC (Salmonella dublin; [5]): 50 µg/mL (≈ 258 µM)
MIC (Mycoplasma gallisepticum; [6]): 50 µg/mL (≈ 258 µM)
MIC (Escherichia coli; tube dilution, read-out: MIC): 50 µg/mL (≈ 258 µM)

CCSCCn1cc(C#N)c([N+](=O)[O-])n1 [Compound 72, 1-(2-ethylthioethyl)-3-nitro-4-pyrazolecarbonitrile]
MIC (Pasteurella multocida; tube dilution, read-out: MIC): > 50 µg/mL
MIC (Streptococcus sp. 80; [2]): > 50 µg/mL
MIC [1, 3]: > 50 µg/mL
MIC (Vibrio coli 3811; [4]): > 50 µg/mL
MIC (Salmonella dublin; [5]): > 50 µg/mL
MIC (Mycoplasma gallisepticum; [6]): > 50 µg/mL
MIC (Escherichia coli; tube dilution, read-out: MIC): > 50 µg/mL
